Data as given in patent US20130072430A1, “METHODS FOR TREATMENT OR PROPHYLAXIS OF KIDNEY OR LIVER DYSFUNCTION” (NPS PHARMACEUTICALS, INC., priority 2010, published 2013).

System: Human patients with short bowel syndrome
Test: Example 1: liver diagnostic biomarkers (total bilirubin, ALT, AST, ALP) in short bowel syndrome patients, every four weeks for 24 weeks
Format: in vivo
Parameters: AST (SGOT) Change from Baseline, Median / ALT (SGPT), Median / TOTAL BILIRUBIN, Median / TOTAL BILIRUBIN Change from Baseline, Median / ALT (SGPT) Change from Baseline, Median / AST (SGOT), Median: unit not given here
Conditions: 0.05 mg/kg/day
Description: Human patients with short bowel syndrome were divided into three groups: a control group (16 total individuals) to receive placebo, an experimental group (35 total individuals) to receive teduglutide at 0.05 mg/kg/day throughout the study, and an experimental group (32 total individuals) to receive teduglutide at 0.1 mg/kg/day throughout the study. Patients were treated by subcutaneous injection of placebo or the appropriate dose of teduglutide. As individuals with short bowel syndrome are likely to experience associated liver and kidney disease, known biomarkers of liver and kidney function were monitored every four weeks, for 24 weeks. The liver biomarkers tested included total bilirubin, ALT and AST and ALP. The kidney biomarkers tested included urea nitrogen, creatinine and GFR. Before administration of placebo or teduglutide, diagnostic biomarker levels were tested to establish a baseline for each individual.
To visualize the effect of GLP-2 on the levels of the diagnostic biomarkers, the average change from baseline was calculated for the placebo and teduglutide treated groups for each visit after a baseline was established. The average change from baseline of each group is depicted in FIGS. […]. The numerical figures for each diaanostic biomarker at each time point are depicted in Table 1.
The efficacy of teduglutide in treating liver dysfunction was further tested by sorting the data into two groups: individuals with abnormal baseline values of liver diagnostic biomarkers; and individuals with normal baseline values of liver diagnostic biomarkers. The mean diagnostic biomarker change from baseline for these two groups is shown for ALT (FIGS. 5 and 6) and AST (FIGS. 7 and 8). […] These changes were significant when compared to baseline levels for the group, and when compared to placebo (see FIGS. 5 and 7).
The raw data for this sorting is reproduced in Table 2 below.

Compound: CC[C@H](C)[C@H](NC(=O)[C@H](Cc1ccccc1)NC(=O)[C@H](CC(=O)O)NC(=O)[C@H](CCCNC(=N)N)NC(=O)[C@H](C)NC(=O)[C@H](C)NC(=O)[C@H](CC(C)C)NC(=O)[C@H](CC(N)=O)NC(=O)[C@H](CC(=O)O)NC(=O)[C@H](CC(C)C)NC(=O)[C@@H](NC(=O)[C@@H](NC(=O)[C@H](CC(N)=O)NC(=O)[C@H](CCSC)NC(=O)[C@H](CCC(=O)O)NC(=O)[C@H](CC(=O)O)NC(=O)[C@H](CO)NC(=O)[C@H](Cc1ccccc1)NC(=O)[C@H](CO)NC(=O)CNC(=O)[C@H](CC(=O)O)NC(=O)CNC(=O)[C@@H](N)Cc1c[nH]cn1)[C@@H](C)O)[C@@H](C)CC)C(=O)N[C@@H](CC(N)=O)C(=O)N[C@@H](Cc1c[nH]c2ccccc12)C(=O)N[C@@H](CC(C)C)C(=O)N[C@H](C(=O)N[C@@H](CCC(N)=O)C(=O)N[C@H](C(=O)N[C@@H](CCCCN)C(=O)N[C@H](C(=O)N[C@H](C(=O)N[C@@H](CC(=O)O)C(=O)O)[C@@H](C)O)[C@@H](C)CC)[C@@H](C)O)[C@@H](C)CC [teduglutide]
- ALKALINE PHOSPHATASE Change from Baseline, Mean (SD) (DW4): −24.8 (45.66)
- ALKALINE PHOSPHATASE Change from Baseline, Median (DW4): −16.0
- ALKALINE PHOSPHATASE, Mean (SD) (DW4): 159.5 (90.91)
- ALKALINE PHOSPHATASE, Median (DW4): 139.0
- ALT (SGPT) Change from Baseline, Mean (SD) (DW4): −14.9 (26.39)
- ALT (SGPT) Change from Baseline, Median (DW4): −5.0
- ALT (SGPT), Mean (SD) (DW4): 30.1 (14.08)
- ALT (SGPT), Median (DW4): 27.0
- AST (SGOT) Change from Baseline, Mean (SD) (DW4): −5.5 (24.09)
- AST (SGOT) Change from Baseline, Median (DW4): −4.0
- AST (SGOT), Mean (SD) (DW4): 29.1 (19.23)
- AST (SGOT), Median (DW4): 27.0
- TOTAL BILIRUBIN Change from Baseline, Mean (SD) (DW4): −0.8 (4.31)
- TOTAL BILIRUBIN Change from Baseline, Median (DW4): 0.0
- TOTAL BILIRUBIN, Mean (SD) (DW4): 10.4 (9.48)
- TOTAL BILIRUBIN, Median (DW4): 7.0
- ALKALINE PHOSPHATASE Change from Baseline, Mean (SD) (DW8): −24.0 (64.47)
- ALKALINE PHOSPHATASE Change from Baseline, Median (DW8): −20.0
- ALKALINE PHOSPHATASE, Mean (SD) (DW8): 152.2 (84.05)
- ALKALINE PHOSPHATASE, Median (DW8): 134.0
- ALT (SGPT) Change from Baseline, Mean (SD) (DW8): −9.8 (30.38)
- ALT (SGPT) Change from Baseline, Median (DW8): −4.0
- ALT (SGPT), Mean (SD) (DW8): 37.3 (23.71)
- ALT (SGPT), Median (DW8): 31.5
- AST (SGOT) Change from Baseline, Mean (SD) (DW8): −3.2 (19.88)
- AST (SGOT) Change from Baseline, Median (DW8): −3.0
- AST (SGOT), Mean (SD) (DW8): 33.5 (18.56)
- AST (SGOT), Median (DW8): 28.0
- TOTAL BILIRUBIN Change from Baseline, Mean (SD) (DW8): −0.4 (4.78)
- TOTAL BILIRUBIN Change from Baseline, Median (DW8): −1.0
- TOTAL BILIRUBIN, Mean (SD) (DW8): 10.8 (8.86)
- TOTAL BILIRUBIN, Median (DW8): 8.0
- ALKALINE PHOSPHATASE Change from Baseline, Mean (SD) (DW12): −39.4 (48.95)
- ALKALINE PHOSPHATASE Change from Baseline, Median (DW12): −24.0
- ALKALINE PHOSPHATASE, Mean (SD) (DW12): 143.5 (73.92)
- ALKALINE PHOSPHATASE, Median (DW12): 130.5
- ALT (SGPT) Change from Baseline, Mean (SD) (DW12): −12.7 (29.55)
- ALT (SGPT) Change from Baseline, Median (DW12): −10.0
- ALT (SGPT), Mean (SD) (DW12): 34.6 (24.30)
- ALT (SGPT), Median (DW12): 26.0
- AST (SGOT) Change from Baseline, Mean (SD) (DW12): −5.9 (19.28)
- AST (SGOT) Change from Baseline, Median (DW12): −8.0
- AST (SGOT), Mean (SD) (DW12): 29.2 (15.48)
- AST (SGOT), Median (DW12): 26.5
- TOTAL BILIRUBIN Change from Baseline, Mean (SD) (DW12): −1.8 (5.75)
- TOTAL BILIRUBIN Change from Baseline, Median (DW12): −1.0
- TOTAL BILIRUBIN, Mean (SD) (DW12): 9.4 (6.65)
- TOTAL BILIRUBIN, Median (DW12): 7.0
- ALKALINE PHOSPHATASE Change from Baseline, Mean (SD) (DW16): −12.3 (69.90)
- ALKALINE PHOSPHATASE Change from Baseline, Median (DW16): −20.5
- ALKALINE PHOSPHATASE, Mean (SD) (DW16): 168.2 (128.08)
- ALKALINE PHOSPHATASE, Median (DW16): 134.0
- ALT (SGPT) Change from Baseline, Mean (SD) (DW16): −3.2 (24.76)
- ALT (SGPT) Change from Baseline, Median (DW16): −2.5
- ALT (SGPT), Mean (SD) (DW16): 39.5 (39.44)
- ALT (SGPT), Median (DW16): 28.0
- AST (SGOT) Change from Baseline, Mean (SD) (DW16): −4.3 (11.75)
- AST (SGOT) Change from Baseline, Median (DW16): −1.5
- AST (SGOT), Mean (SD) (DW16): 29.3 (12.05)
- AST (SGOT), Median (DW16): 25.0
- TOTAL BILIRUBIN Change from Baseline, Mean (SD) (DW16): −1.3 (9.00)
- TOTAL BILIRUBIN Change from Baseline, Median (DW16): −1.0
- TOTAL BILIRUBIN, Mean (SD) (DW16): 10.0 (8.90)
- TOTAL BILIRUBIN, Median (DW16): 7.0
- ALKALINE PHOSPHATASE Change from Baseline, Mean (SD) (DW20): −36.9 (49.89)
- ALKALINE PHOSPHATASE Change from Baseline, Median (DW20): −25.0
- ALKALINE PHOSPHATASE, Mean (SD) (DW20): 144.2 (76.09)
- ALKALINE PHOSPHATASE, Median (DW20): 136.5
- ALT (SGPT) Change from Baseline, Mean (SD) (DW20): −16.0 (28.73)
- ALT (SGPT) Change from Baseline, Median (DW20): −5.0
- ALT (SGPT), Mean (SD) (DW20): 29.7 (13.35)
- ALT (SGPT), Median (DW20): 26.0
- AST (SGOT) Change from Baseline, Mean (SD) (DW20): −8.0 (14.96)
- AST (SGOT) Change from Baseline, Median (DW20): −4.0
- AST (SGOT), Mean (SD) (DW20): 26.1 (7.02)
- AST (SGOT), Median (DW20): 25.0
- TOTAL BILIRUBIN Change from Baseline, Mean (SD) (DW20): −0.8 (5.69)
- TOTAL BILIRUBIN Change from Baseline, Median (DW20): 0.0
- TOTAL BILIRUBIN, Mean (SD) (DW20): 9.7 (6.78)
- TOTAL BILIRUBIN, Median (DW20): 9.0
- ALKALINE PHOSPHATASE Change from Baseline, Mean (SD) (DW24): −11.6 (166.86)
- ALKALINE PHOSPHATASE Change from Baseline, Median (DW24): −29.0
- ALKALINE PHOSPHATASE, Mean (SD) (DW24): 169.6 (204.22)
- ALKALINE PHOSPHATASE, Median (DW24): 131.0
- ALT (SGPT) Change from Baseline, Mean (SD) (DW24): −13.5 (24.40)
